Assay results: patent publication US8399511B2, “Two types of crystalline of pinocembrin, their preparation and their use for manufacture of pharmaceutical compositions” (CSPC Zhongqi Pharmaceutical Technology (Shijiazhuang) Co., …, priority 2008, dated 2013)

Assay: In vivo absorption and blood concentration after oral administration of pinocembrin crystalline forms
Parameters: species or system SD rats
Conditions: for Blood concentration of pinocembrin: fasted SD rats, arterial blood, HPLC, group average, 50 mg/kg
Experimental: • 1. Monocrystal X-ray analysis • Instrument: MAC DIP-2030K area detector • Test condition: tube voltage: 50 KV, tube flow: 80 mA, ω scanning, MoKα, 2θ≦50.0°, scan range: 0-180°, pivot angle: 6°, step: 6°, scan rate: 1.8°/min. • 2. Powder X-ray analysis • Instrument: Rigaku D/max 2550 powder X-ray diffractometer • Test conditions: voltage: 40 KV, current: 150 mA, scan rate: 8°/min. • 3. DSC analysis • Instrument type: Seiko Instruments Inc. Differential Scanning Calorimeter • Test conditions: purge gas: N2, heating rate: 10° C. /min. • Temperature range: 25-250° C. • 4. IR absorbance spectra • Instrument Nicolet FT-IR spectrometer: IMPACT 400 • Test conditions: KBr pellet • 5. HPCL analysis • Instrument: SHIMADZU LC-10Avp high performance liquid chromatography, SPD-M10Avp diode array detector, CLASS-VP chromatography data system; column: Alltch C18(5μ, 150×4.6 mm); test conditions: column temperature: room temperature; wavelength: 290 nm; mobile phase: methanol/phosphate saline pH 3.0 (64/36); flow rate : 1.0 mL/min; injection volume: 20 μL; injection concentration: 500.0 μg/mL Preparation 1: Synthesis of Pinocembrin Sample
18 of SD rats, female and male each half, with body weight of 230˜250 g, were randomized into 3 groups, with 6 rats each group and female half. After 10 hours of fasting but free water intake, the rats were administrated with pinocembrin solid active ingredient powder of α, β or 1:1 (α+β) mixed crystalline forms, at a dose of 50 mg/kg to stomach. Then the arterial blood samples at different times were taken and the contents of pinocembrin were determined.

[1] = 10 min after oral (to stomach) 50 mg/kg solid powder
[2] = 20 min after oral (to stomach) 50 mg/kg solid powder
[3] = 30 min after oral (to stomach) 50 mg/kg solid powder
[4] = 40 min after oral (to stomach) 50 mg/kg solid powder

| SMILES | Blood concentration of pinocembrin [1] | Blood concentration of pinocembrin [2] | Blood concentration of pinocembrin [3] | Blood concentration of pinocembrin [4] | Blood concentration compared with β crystalline form (same dosage (50 mg/kg) by oral administration, rats) | Blood concentration of pinocembrin (10 min after oral (to stomach) 50 mg/kg solid powder, listed as β crystalline from) | Blood concentration of pinocembrin (20 min after oral (to stomach) 50 mg/kg solid powder, listed as β crystalline from) | Blood concentration of pinocembrin (30 min after oral (to stomach) 50 mg/kg solid powder, listed as β crystalline from) | Blood concentration of pinocembrin (40 min after oral (to stomach) 50 mg/kg solid powder, listed as β crystalline from) | Uptake rate by organism relative to α crystalline form (rat, in vivo) |
| --- | --- | --- | --- | --- | --- | --- | --- | --- | --- | --- |
| O=C1C[C@@H](c2ccccc2)Oc2cc(O)cc(O)c21 (stereo in doubt) [1:1 (α + β) crystalline forms, 5,7-dihydroxy-2-phenyl-4-chromanone] | 8.5 peak area value | 15.6 peak area value | 7.9 peak area value | 7.1 peak area value |  |  |  |  |  |  |
| O=C1C[C@@H](c2ccccc2)Oc2cc(O)cc(O)c21 (stereo in doubt) [α crystalline form, 5,7-dihydroxy-2-phenyl-4-chromanone] | 3.8 peak area value | 9.7 peak area value | 4.4 peak area value | 3.5 peak area value | obviously lower |  |  |  |  |  |
| O=C1C[C@@H](c2ccccc2)Oc2cc(O)cc(O)c21 (stereo in doubt) [β crystalline form, 5,7-dihydroxy-2-phenyl-4-chromanone] |  |  |  |  |  | 13.2 peak area value | 48.6 peak area value | 14.6 peak area value | 14.2 peak area value | ≥ 2 times |
